From ChEMBL document CHEMBL3991601, “The target landscape of clinical kinase drugs” (Science, 2017)
Calls of active or inactive are those of the source.

Legend:
[1] = molecular target: T1, ATP-dependent 6-phosphofructokinase, platelet type (Homo sapiens, UniProt Q01813)
T1 sequence (Q01813 whole entry): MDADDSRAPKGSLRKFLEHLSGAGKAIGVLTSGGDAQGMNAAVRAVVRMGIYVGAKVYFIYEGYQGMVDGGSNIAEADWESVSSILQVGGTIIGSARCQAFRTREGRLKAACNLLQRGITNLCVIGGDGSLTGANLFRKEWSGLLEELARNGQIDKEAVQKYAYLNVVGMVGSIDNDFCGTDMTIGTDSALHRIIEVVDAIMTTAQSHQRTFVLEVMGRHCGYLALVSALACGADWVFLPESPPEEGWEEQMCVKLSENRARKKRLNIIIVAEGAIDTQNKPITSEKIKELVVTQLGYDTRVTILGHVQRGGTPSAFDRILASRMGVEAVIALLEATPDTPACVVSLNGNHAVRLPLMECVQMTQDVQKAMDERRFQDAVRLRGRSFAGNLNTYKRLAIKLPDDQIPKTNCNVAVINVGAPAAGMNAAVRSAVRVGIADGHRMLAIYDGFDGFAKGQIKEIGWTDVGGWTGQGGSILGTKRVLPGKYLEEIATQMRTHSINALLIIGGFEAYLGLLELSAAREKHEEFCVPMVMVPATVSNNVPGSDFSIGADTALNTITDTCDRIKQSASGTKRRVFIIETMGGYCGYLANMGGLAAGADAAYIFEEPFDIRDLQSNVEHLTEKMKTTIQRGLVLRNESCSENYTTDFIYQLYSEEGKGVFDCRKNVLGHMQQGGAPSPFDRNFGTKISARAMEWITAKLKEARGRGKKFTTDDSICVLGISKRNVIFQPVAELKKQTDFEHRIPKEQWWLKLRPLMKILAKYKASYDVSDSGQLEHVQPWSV

[2] = molecular target: Rho-associated protein kinase 1 (Homo sapiens, UniProt Q13464)
[3] = molecular target: T2, Mitogen-activated protein kinase kinase kinase 3 (Homo sapiens, UniProt Q99759)
T2 sequence (Q99759 whole entry): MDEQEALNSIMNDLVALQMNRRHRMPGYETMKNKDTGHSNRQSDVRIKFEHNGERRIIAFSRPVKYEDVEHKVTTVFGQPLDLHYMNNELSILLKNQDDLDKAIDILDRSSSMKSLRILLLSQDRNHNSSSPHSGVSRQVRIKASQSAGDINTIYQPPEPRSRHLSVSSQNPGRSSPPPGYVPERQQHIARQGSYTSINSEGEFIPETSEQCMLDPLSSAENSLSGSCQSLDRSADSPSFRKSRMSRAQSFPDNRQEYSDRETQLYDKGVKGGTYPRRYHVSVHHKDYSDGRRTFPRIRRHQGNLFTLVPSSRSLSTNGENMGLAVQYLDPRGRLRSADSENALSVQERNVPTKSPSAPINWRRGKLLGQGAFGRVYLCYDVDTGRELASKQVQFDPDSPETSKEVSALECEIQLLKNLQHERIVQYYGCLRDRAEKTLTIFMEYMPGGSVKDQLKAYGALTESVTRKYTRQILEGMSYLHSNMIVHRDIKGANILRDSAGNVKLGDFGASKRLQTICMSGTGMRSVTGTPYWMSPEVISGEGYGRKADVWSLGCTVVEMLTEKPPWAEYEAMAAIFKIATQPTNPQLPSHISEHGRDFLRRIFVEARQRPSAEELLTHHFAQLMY

[4] = molecular target: T3, Peroxisomal acyl-coenzyme A oxidase 3 (Homo sapiens, UniProt O15254)
T3 sequence (O15254 whole entry): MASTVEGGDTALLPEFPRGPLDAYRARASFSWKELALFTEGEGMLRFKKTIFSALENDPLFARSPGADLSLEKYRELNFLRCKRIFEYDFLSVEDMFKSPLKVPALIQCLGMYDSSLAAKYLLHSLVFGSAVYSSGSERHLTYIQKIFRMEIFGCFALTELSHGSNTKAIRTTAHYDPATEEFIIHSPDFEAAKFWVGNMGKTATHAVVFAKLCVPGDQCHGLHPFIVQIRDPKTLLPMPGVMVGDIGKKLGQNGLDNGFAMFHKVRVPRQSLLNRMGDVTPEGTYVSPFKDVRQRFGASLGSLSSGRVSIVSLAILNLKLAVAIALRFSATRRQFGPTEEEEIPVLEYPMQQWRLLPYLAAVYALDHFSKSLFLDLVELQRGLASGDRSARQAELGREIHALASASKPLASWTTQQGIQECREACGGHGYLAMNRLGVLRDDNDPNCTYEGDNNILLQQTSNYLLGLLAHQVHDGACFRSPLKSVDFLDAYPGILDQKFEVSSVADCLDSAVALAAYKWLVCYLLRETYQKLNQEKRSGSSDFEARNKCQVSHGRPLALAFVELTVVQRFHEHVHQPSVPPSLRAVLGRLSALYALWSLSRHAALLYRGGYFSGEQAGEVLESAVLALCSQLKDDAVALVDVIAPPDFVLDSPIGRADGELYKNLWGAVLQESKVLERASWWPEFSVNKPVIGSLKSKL

Insulin receptor = Insulin receptor (Homo sapiens, UniProt P06213)
Further: in the data inactive means no Kd found up to 30 µM.

Chain of Insulin receptor (P06213 28-758 limits assumed): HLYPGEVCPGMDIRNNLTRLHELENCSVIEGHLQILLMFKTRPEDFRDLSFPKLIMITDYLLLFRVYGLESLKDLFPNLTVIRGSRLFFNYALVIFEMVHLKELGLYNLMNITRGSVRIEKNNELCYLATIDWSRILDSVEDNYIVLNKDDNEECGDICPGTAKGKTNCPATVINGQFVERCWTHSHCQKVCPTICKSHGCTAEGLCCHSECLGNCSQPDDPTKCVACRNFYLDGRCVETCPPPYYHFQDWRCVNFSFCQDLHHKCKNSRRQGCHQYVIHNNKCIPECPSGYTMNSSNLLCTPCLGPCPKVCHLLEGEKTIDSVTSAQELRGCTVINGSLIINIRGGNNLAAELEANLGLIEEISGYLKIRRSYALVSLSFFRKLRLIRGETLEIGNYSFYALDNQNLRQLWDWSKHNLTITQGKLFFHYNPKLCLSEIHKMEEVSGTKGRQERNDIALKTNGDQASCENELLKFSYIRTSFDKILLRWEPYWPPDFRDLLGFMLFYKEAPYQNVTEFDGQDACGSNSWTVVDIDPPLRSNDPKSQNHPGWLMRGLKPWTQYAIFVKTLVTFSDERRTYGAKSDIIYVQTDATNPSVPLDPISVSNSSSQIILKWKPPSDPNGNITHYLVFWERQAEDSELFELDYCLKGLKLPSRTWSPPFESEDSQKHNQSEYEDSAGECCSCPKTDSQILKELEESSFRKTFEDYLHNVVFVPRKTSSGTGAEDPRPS
Chain of Insulin receptor (P06213 763-1382 limits assumed): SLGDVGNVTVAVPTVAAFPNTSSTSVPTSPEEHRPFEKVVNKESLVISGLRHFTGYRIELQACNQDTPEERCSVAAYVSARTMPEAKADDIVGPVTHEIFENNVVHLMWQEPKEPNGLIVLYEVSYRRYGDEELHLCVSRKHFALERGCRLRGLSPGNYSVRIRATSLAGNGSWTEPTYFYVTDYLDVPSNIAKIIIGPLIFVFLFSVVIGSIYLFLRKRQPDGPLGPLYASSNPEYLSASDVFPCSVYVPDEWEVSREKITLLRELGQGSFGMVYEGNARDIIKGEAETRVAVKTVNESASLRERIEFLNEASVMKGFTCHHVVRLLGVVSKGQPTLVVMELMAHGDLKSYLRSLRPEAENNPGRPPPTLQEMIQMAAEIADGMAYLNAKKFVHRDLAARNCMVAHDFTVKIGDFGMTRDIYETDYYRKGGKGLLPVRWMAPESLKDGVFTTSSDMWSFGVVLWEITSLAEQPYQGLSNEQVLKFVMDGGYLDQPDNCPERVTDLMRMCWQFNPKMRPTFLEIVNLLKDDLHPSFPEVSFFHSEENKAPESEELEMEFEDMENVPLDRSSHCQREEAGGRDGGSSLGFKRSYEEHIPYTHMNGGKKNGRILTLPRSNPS
Chain of Rho-associated protein kinase 1 (Q13464 whole entry): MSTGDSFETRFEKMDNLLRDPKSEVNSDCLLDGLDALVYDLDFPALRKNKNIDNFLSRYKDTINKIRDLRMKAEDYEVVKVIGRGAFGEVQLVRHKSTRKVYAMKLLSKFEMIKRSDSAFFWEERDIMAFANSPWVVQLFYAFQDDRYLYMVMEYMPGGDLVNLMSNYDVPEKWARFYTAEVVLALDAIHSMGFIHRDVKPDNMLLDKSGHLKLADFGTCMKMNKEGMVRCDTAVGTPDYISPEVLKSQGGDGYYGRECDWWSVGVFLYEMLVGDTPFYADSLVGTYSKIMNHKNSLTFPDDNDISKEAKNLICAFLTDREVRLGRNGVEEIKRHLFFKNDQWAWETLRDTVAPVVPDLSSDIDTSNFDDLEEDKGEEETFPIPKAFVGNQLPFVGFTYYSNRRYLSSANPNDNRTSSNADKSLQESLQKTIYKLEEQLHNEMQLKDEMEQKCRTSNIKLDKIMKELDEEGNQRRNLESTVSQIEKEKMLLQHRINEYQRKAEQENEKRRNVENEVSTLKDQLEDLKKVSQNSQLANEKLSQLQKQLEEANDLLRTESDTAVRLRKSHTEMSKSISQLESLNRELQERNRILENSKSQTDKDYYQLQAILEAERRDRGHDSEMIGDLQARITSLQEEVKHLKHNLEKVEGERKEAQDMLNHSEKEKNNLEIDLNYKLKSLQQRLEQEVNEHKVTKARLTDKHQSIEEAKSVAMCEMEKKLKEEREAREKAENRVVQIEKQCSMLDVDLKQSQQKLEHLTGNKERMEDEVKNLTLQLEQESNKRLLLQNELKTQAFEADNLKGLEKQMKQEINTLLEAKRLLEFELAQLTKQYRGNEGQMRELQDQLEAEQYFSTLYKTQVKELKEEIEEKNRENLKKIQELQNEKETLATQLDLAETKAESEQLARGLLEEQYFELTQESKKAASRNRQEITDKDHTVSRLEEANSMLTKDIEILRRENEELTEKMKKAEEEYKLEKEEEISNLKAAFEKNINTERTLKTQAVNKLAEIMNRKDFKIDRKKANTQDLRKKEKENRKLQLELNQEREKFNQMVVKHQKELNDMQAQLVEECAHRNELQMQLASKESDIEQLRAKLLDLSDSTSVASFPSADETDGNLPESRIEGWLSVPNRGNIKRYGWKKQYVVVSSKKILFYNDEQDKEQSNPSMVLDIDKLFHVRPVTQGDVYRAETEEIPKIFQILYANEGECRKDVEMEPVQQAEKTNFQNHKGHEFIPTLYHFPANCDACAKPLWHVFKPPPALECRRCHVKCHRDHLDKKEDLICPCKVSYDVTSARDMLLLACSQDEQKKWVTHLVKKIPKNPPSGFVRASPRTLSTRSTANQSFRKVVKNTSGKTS

Kd [1]	Kd [2]	Kd [3]	Kd [4]	Kd (Insulin receptor)	Compound
> 30 µM (inactive)	> 30 µM (inactive)	> 30 µM (inactive)	> 30 µM (inactive)	> 30 µM (inactive)	COc1ccc(S(=O)(=O)N(C(C)=O)c2ccccc2/C=C/c2cc[n+]([O-])cc2)cc1 [HMN-214]
> 30 µM (inactive)	> 30 µM (inactive)	> 30 µM (inactive)	> 30 µM (inactive)	> 30 µM (inactive)	CNC(=O)c1nn(C)c2c1C(C)(C)Cc1cnc(Nc3ccc(N4CCN(C)CC4)cc3)nc1-2 [MILCICLIB]
> 30 µM (inactive)	> 30 µM (inactive)	> 30 µM (inactive)	> 30 µM (inactive)	> 30 µM (inactive)	NC1(c2ccc(-c3nc4ccn5c(=O)[nH]nc5c4cc3-c3ccccc3)cc2)CCC1 [MK-2206]
> 30 µM (inactive)	> 30 µM (inactive)	> 30 µM (inactive)	> 30 µM (inactive)	> 30 µM (inactive)	CN(C[C@@H]1COCCO1)S(=O)(=O)Nc1ccc2ccc3ncc(-c4cnn(C)c4)cc3c(=O)c2c1 [MK-2461]
> 30 µM (inactive)	> 30 µM (inactive)	> 30 µM (inactive)	> 30 µM (inactive)	> 30 µM (inactive)	FC(F)(F)c1ccc(/C=C/c2nc(COc3ccc(CCCCn4ccnn4)cc3)co2)cc1 [MUBRITINIB]
> 30 µM (inactive)	> 30 µM (inactive)	> 30 µM (inactive)	> 30 µM (inactive)	> 30 µM (inactive)	COc1ncc(-c2ccc3nccc(-c4ccnnc4)c3c2)cc1NS(=O)(=O)c1ccc(F)cc1F [OMIPALISIB]
> 30 µM (inactive)	> 30 µM (inactive)	> 30 µM (inactive)	> 30 µM (inactive)	> 30 µM (inactive)	Cc1nc(Nc2n[nH]c3c2CN(C(=O)N[C@H](CN(C)C)c2ccccc2)C3(C)C)c2sccc2n1 [PF-03758309]
> 30 µM (inactive)	> 30 µM (inactive)	> 30 µM (inactive)	> 30 µM (inactive)	> 30 µM (inactive)	Cc1cnc(NC(=O)Nc2cc(Br)c(C)cc2OC[C@@H]2CNCCO2)cn1 [RABUSERTIB]
> 30 µM (inactive)	> 30 µM (inactive)	> 30 µM (inactive)	> 30 µM (inactive)	> 30 µM (inactive)	CO[C@H]1C[C@@H]2CC[C@@H](C)[C@@](O)(O2)C(=O)C(=O)N2CCCC[C@H]2C(=O)O[C@H]([C@H](C)C[C@@H]2CC[C@@H](O)[C@H](OC)C2)CC(=O)[C@H](C)/C=C(\C)[C@@H](O)[C@@H](OC)C(=O)[C@H](C)C[C@H](C)/C=C/C=C/C=C/1C [SIROLIMUS]
> 30 µM (inactive)	> 30 µM (inactive)	> 30 µM (inactive)	> 30 µM (inactive)	> 30 µM (inactive)	CCS(=O)(=O)c1cccc(-c2cc(C(=O)NC3CCN(C)CC3)c(C)c3[nH]c4ncc(C)cc4c23)c1 [TAK-901]
> 30 µM (inactive)	> 30 µM (inactive)	> 30 µM (inactive)	> 30 µM (inactive)	> 30 µM (inactive)	CO[C@H]1C[C@@H]2CC[C@@H](C)[C@@](O)(O2)C(=O)C(=O)N2CCCC[C@H]2C(=O)O[C@H]([C@H](C)C[C@@H]2CC[C@@H](OC(=O)C(C)(CO)CO)[C@H](OC)C2)CC(=O)[C@H](C)/C=C(\C)[C@@H](O)[C@@H](OC)C(=O)[C@H](C)C[C@H](C)/C=C/C=C/C=C/1C [TEMSIROLIMUS]
> 30 µM (inactive)	> 30 µM (inactive)	> 30 µM (inactive)	> 30 µM (inactive)	> 30 µM (inactive)	COc1cc2c(Nc3ccc(Cl)c(Cl)c3F)ncnc2cc1OC[C@@H]1C[C@@H]2CN(C)C[C@@H]2C1 [TESEVATINIB]
> 30 µM (inactive)	> 30 µM (inactive)	> 30 µM (inactive)	> 30 µM (inactive)	> 30 µM (inactive)	O=C1NC(=O)[C@@H](c2cn3c4c(cccc24)CCC3)[C@@H]1c1c[nH]c2ccccc12 [TIVANTINIB]
> 30 µM (inactive)	> 30 µM (inactive)	> 30 µM (inactive)	> 30 µM (inactive)	> 30 µM (inactive)	C[C@@H](NC(=O)c1ncnc(N)c1Cl)c1ncc(C(=O)Nc2cc(C(F)(F)F)c(Cl)cn2)s1 [TOVORAFENIB]
> 30 µM (inactive)	> 30 µM (inactive)	> 30 µM (inactive)	> 30 µM (inactive)	0.144 µM (active)	CC(C)c1cc(CNc2nc(Nc3cc(C4CC4)[nH]n3)cc(N3CCN(C)CC3)n2)on1 [XL-228]
> 30 µM (inactive)	99.2 µM	> 30 µM (inactive)	> 30 µM (inactive)	> 30 µM (inactive)	CN1C/C=C/CCOc2cccc(c2)-c2ccnc(n2)Nc2cccc(c2)C1 [ZOTIRACICLIB]

Compound	Kd [1]	Kd [2]	Kd [3]	Kd [4]	Kd (Insulin receptor)
CCOc1cc2ncc(C#N)c(Nc3ccc(F)c(Cl)c3)c2cc1NC(=O)/C=C/CN(C)C [PELITINIB]	> 30 µM (inactive)	> 30 µM (inactive)	2.09 µM (active)	> 30 µM (inactive)	> 30 µM (inactive)
CCCCCCCCCCCCCCCCCCOP(=O)([O-])OC1CC[N+](C)(C)CC1 [PERIFOSINE]	> 30 µM (inactive)	> 30 µM (inactive)	> 30 µM (inactive)	> 30 µM (inactive)	> 30 µM (inactive)
CNC(=O)c1cc(Oc2ccc(NC(=O)Nc3cc(C(C)(C)C)nn3-c3ccc4ncccc4c3)c(F)c2)ccn1 [REBASTINIB]	> 30 µM (inactive)	> 30 µM (inactive)	> 30 µM (inactive)	16.1 µM	> 30 µM (inactive)
CN1CCN(CCOc2cc(OC3CCOCC3)c3c(Nc4c(Cl)ccc5c4OCO5)ncnc3c2)CC1 [SARACATINIB]	> 30 µM (inactive)	> 30 µM (inactive)	> 30 µM (inactive)	> 30 µM (inactive)	> 30 µM (inactive)
Cc1cc(Nc2ncnc3ccc(NC4=NC(C)(C)CO4)cc23)ccc1Oc1ccn2ncnc2c1 [TUCATINIB]	> 30 µM (inactive)	> 30 µM (inactive)	> 30 µM (inactive)	> 30 µM (inactive)	> 30 µM (inactive)
